In PMC12766724, “Synthesis, Anthelmintic Activity, and Mechanism of Action of 5‑Aryl‑1H‑indoles” (Journal of Agricultural and Food Chemistry, 2025):

What was measured:
[1] = system: C. elegans complex II mutant RP2702; assay: Scoring of developmental rates, L1 exposed 5 days; format: in vivo, Caenorhabditis elegans
Excerpt: (§1) Dead or mostly immobile worms, arrested at the L1 stage, received a score of 1. Populations with severely delayed development were scored as 2. More developmentally advanced, but still obviously delayed worms were given the score of 3. Adult worms that produce a noticeably lower number of progeny received a score of 4. Healthy worms that reproduce normally (i.e., hundreds of eggs and larvae are present) were scored as 5 (see Figure C for representative images). In a typical, correctly prepared experiment, vehicle-treated populations should receive a score of 5, while worms treated with ivermectin (positive control) should receive a score of 1. […]

[2] = system: C. elegans complex II mutant RP2700; assay: Scoring of developmental rates, L1 exposed 5 days; format: in vivo, Caenorhabditis elegans
Excerpt: as §1

[3] = system: C. elegans complex II mutant RP2699; assay: Scoring of developmental rates, L1 exposed 5 days; format: in vivo, Caenorhabditis elegans
Excerpt: as §1

wild-type C. elegans = system: wild-type C. elegans; parameters: method as in previously published data; conditions: earlier larval stages, longer exposure times; ref previously published data; cited from earlier work
[4] = system: C. elegans wild-type and MCII mutant strains; assay: Scoring of developmental rates, comparison of strains; format: in vivo, Caenorhabditis elegans; conditions: L1 exposed 5 days
Excerpt: Dead or mostly immobile worms, arrested at the L1 stage, received a score of 1. Populations with severely delayed development were scored as 2. More developmentally advanced, but still obviously delayed worms were given the score of 3. Adult worms that produce a noticeably lower number of progeny received a score of 4. Healthy worms that reproduce normally (i.e., hundreds of eggs and larvae are present) were scored as 5 (see Figure C for representative images). In a typical, correctly prepared experiment, vehicle-treated populations should receive a score of 5, while worms treated with ivermectin (positive control) should receive a score of 1.
We attribute this discrepancy to methodological differences: in previous studies, earlier larval stages, longer exposure times, and different evaluation methods, possibly more sensitive than WMicrotracker, were used.

[5] = system: C. elegans MCII mutant RP2702; assay: Acute motility of young adults on WMicrotracker ONE; format: in vivo, Caenorhabditis elegans; conditions: 100 μM; 24 h
Protocol: (§2) The effect of compounds on C. elegans N2 and SDH mutant strains was measured in a similar manner. Briefly, for evaluation of the acute effect of the compounds, age-synchronized young adults of each strain, kept in S complete medium supplemented with E. coli OP50 (3 mg/mL, fresh weight), were transferred onto microtiter plates (96-well, U bottom), and their initial motility was measured for 30 min. […] Afterward, the compounds were washed away, and worms, supplemented with fresh liquid media and food, were distributed onto 96-well plates and allowed to recover. Their activity was measured using WMicrotracker ONE at the indicated time points.
(§3) To experimentally support this promising initial finding, we tested the effect of i-19 against several C. elegans MCII mutant strains. These nematodes carry point mutations that result in amino acid changes in regions of subunits SDHC and SDHD that contribute to the formation of the ubiquinone-binding pocket, thereby influencing its shape and the ability of inhibitors to interact with the protein. […] The compounds were tested in multiple setups. At first, young adults were exposed to higher doses (100, 50, and 10 μM) of the compounds for up to 48 h, and changes in motility were evaluated using WMicrotracker. For both compounds, we observed a less pronounced decrease in movement rates of MCII mutants compared to wild-type worms, in both a dose- and time-dependent manner (Figure ).

[6] = system: C. elegans MCII mutant RP2700; assay: as above; format: in vivo, Caenorhabditis elegans; conditions: 100 μM; 24 h
Protocol: as §2, §3

[7] = system: C. elegans MCII mutant RP2699; assay: as above; format: in vivo, Caenorhabditis elegans; conditions: 100 μM; 24 h
Protocol: as §2, §3

C. elegans wild-type N2 = assay: as above; format: in vivo, Caenorhabditis elegans; conditions: 100 μM; 24 h
Protocol: as §2, §3

[8] = system: mitochondrial membrane potential of C. elegans young adults; assay: Mitochondrial membrane potential measurement; format: in vivo, Caenorhabditis elegans; conditions: 100 μM; 24 h
Protocol: After 24 h, the compounds were washed away. Then, the mitochondrial membrane potential was measured using a specialized fluorescent dye (kit MAK147, Sigma-Aldrich). The kit was used according to the manufacturer’s instructions with modified incubation temperature and time (20 °C, 4 h) to account for the fact that living intact worms were used instead of cell cultures. , Dyed worms (approximately 200 per well) were distributed onto a black 96-well plate, and the fluorescence was measured using a Tecan Infinite 200 Pro plate reader.
Determining the mechanism of action of compounds is always challenging; however, the nature of their effect, as well as the structural similarity to compounds with known properties, can provide useful insights. One of our hypotheses was that the compounds might interfere with energy production. We based this assumption on the behavior of compound-treated worms (delayed development, lower fecundity, and relatively rapid decrease in motility rates but not necessarily death). Impaired mitochondrial function would be accompanied by a decrease in mitochondrial membrane potential (MMP).

[9] = system: C. elegans wild-type and MCII mutants; assay: Recovery of pretreated worms on WMicrotracker ONE; format: in vivo, Caenorhabditis elegans; conditions: 5 or 10 μM for 72 h, then wash-out and recovery
Protocol: as §2, with “Briefly,” for “The effect of compounds on C. elegans N2 and SDH mutant strains was measured in a similar manner. Briefly,”
C. elegans L1 larvae were exposed to 5 or 10 μM of the compounds for 72 h, after which the compounds were washed away, and the recovery of the nematodes was evaluated using WMicrotracker.

C. elegans N2 = assay: Scoring of developmental rates, L1 exposed 5 days; format: in vivo, Caenorhabditis elegans
Excerpt: as §1

**Q.** For `O=C(NCCc1ncc(C(F)(F)F)cc1Cl)c1ccccc1C(F)(F)F` [fluopyram, reference compound], which “mean score (1-5)” value ([1]; 0.012 µM) is on record?
**A.** 5

**Q.** And the “mean score (1-5)” value ([1]; 0.024 µM)?
**A.** 5

**Q.** What about the “mean score (1-5)” value ([1]; 0.049 µM) of the same compound?
**A.** 5

**Q.** What about the “mean score (1-5)” value ([1]; 0.195 µM) of the same compound?
**A.** 4.889

**Q.** What about the “mean score (1-5)” value ([1]; 0.391 µM) of the same compound?
**A.** 4.667

**Q.** What about the “mean score (1-5)” value ([1]; 0.781 µM) of the same compound?
**A.** 4.111

**Q.** What about the “mean score (1-5)” value ([1]; 1.563 µM) of the same compound?
**A.** 3.556

**Q.** What about the “mean score (1-5)” value ([1]; 3.125 µM) of the same compound?
**A.** 3.111

**Q.** What about the “mean score (1-5)” value ([1]; 6.25 µM) of the same compound?
**A.** 2.333

**Q.** What about the “mean score (1-5)” value ([1]; 12.5 µM) of the same compound?
**A.** 1

**Q.** What about the “mean score (1-5)” value ([1]; 25 µM) of the same compound?
**A.** 1

**Q.** What about the “mean score (1-5)” value ([1]; 50 µM) of the same compound?
**A.** 1

**Q.** What about the “mean score (1-5)” value ([1]; 100 µM) of the same compound?
**A.** 1

**Q.** What about the “mean score (1-5)” value ([2]; 0.012 µM) of the same compound?
**A.** 5

**Q.** And the “mean score (1-5)” value ([2]; 0.024 µM)?
**A.** 5

**Q.** And the “mean score (1-5)” value ([2]; 0.049 µM)?
**A.** 5

**Q.** And the “mean score (1-5)” value ([2]; 0.195 µM)?
**A.** 4.778

**Q.** And the “mean score (1-5)” value ([2]; 0.391 µM)?
**A.** 4.444

**Q.** And the “mean score (1-5)” value ([2]; 0.781 µM)?
**A.** 3.556

**Q.** And the “mean score (1-5)” value ([2]; 1.563 µM)?
**A.** 3.667

**Q.** What about the “mean score (1-5)” value ([2]; 3.125 µM) of the same compound?
**A.** 2.444

**Q.** What about the “mean score (1-5)” value ([2]; 6.25 µM) of the same compound?
**A.** 1.222

**Q.** What about the “mean score (1-5)” value ([2]; 12.5 µM) of the same compound?
**A.** 1

**Q.** What about the “mean score (1-5)” value ([2]; 25 µM) of the same compound?
**A.** 1.333

**Q.** What about the “mean score (1-5)” value ([2]; 50 µM) of the same compound?
**A.** 1

**Q.** And the “mean score (1-5)” value ([2]; 100 µM)?
**A.** 1

**Q.** What about the “mean score (1-5)” value ([3]; 0.012 µM) of the same compound?
**A.** 4.667

**Q.** What about the “mean score (1-5)” value ([3]; 0.024 µM) of the same compound?
**A.** 4.444

**Q.** And the “mean score (1-5)” value ([3]; 0.049 µM)?
**A.** 4

**Q.** And the “mean score (1-5)” value ([3]; 0.195 µM)?
**A.** 4.556

**Q.** What about the “mean score (1-5)” value ([3]; 0.391 µM) of the same compound?
**A.** 4.444

**Q.** And the “mean score (1-5)” value ([3]; 0.781 µM)?
**A.** 3.889

**Q.** What about the “mean score (1-5)” value ([3]; 1.563 µM) of the same compound?
**A.** 3.111

**Q.** What about the “mean score (1-5)” value ([3]; 3.125 µM) of the same compound?
**A.** 3.333

**Q.** And the “mean score (1-5)” value ([3]; 6.25 µM)?
**A.** 1.222

**Q.** And the “mean score (1-5)” value ([3]; 12.5 µM)?
**A.** 1

**Q.** What about the “mean score (1-5)” value ([3]; 25 µM) of the same compound?
**A.** 1

**Q.** What about the “mean score (1-5)” value ([3]; 50 µM) of the same compound?
**A.** 1.222

**Q.** What about the “mean score (1-5)” value ([3]; 100 µM) of the same compound?
**A.** 1

**Q.** And the “concentrations that strongly affect wild-type C. elegans” value (wild-type C. elegans)?
**A.** below 1 μM

**Q.** And the “concentrations at which all strains were severely affected” value [4]?
**A.** > 6.25 µM

**Q.** And the “decrease of mean activity counts” value [5]?
**A.** 28%

**Q.** What about the “decrease of mean activity counts” value [6] of the same compound?
**A.** 16%

**Q.** What about the “decrease of mean activity counts” value [7] of the same compound?
**A.** 53%

**Q.** What about the “decrease of mean activity counts” value (C. elegans wild-type N2) of the same compound?
**A.** 60%

**Q.** What about the “MMP signal lower than in vehicle-treated control animals” value [8] of the same compound?
**A.** ~85%

**Q.** What about the “resistance of MCII mutants compared to wild-type” value [9] of the same compound?
**A.** increased resistance of the MCII mutants

**Q.** What about the “mean score (1-5)” value (C. elegans N2; 0.012 µM) of the same compound?
**A.** 4.667

**Q.** And the “mean score (1-5)” value (C. elegans N2; 0.024 µM)?
**A.** 4.333

**Q.** And the “mean score (1-5)” value (C. elegans N2; 0.049 µM)?
**A.** 3.667

**Q.** What about the “mean score (1-5)” value (C. elegans N2; 0.195 µM) of the same compound?
**A.** 2.778

**Q.** What about the “mean score (1-5)” value (C. elegans N2; 0.391 µM) of the same compound?
**A.** 2

**Q.** What about the “mean score (1-5)” value (C. elegans N2; 0.781 µM) of the same compound?
**A.** 1

**Q.** And the “mean score (1-5)” value (C. elegans N2; 1.563 µM)?
**A.** 1

**Q.** And the “mean score (1-5)” value (C. elegans N2; 3.125 µM)?
**A.** 1

**Q.** What about the “mean score (1-5)” value (C. elegans N2; 6.25 µM) of the same compound?
**A.** 1

**Q.** What about the “mean score (1-5)” value (C. elegans N2; 12.5 µM) of the same compound?
**A.** 1

**Q.** What about the “mean score (1-5)” value (C. elegans N2; 25 µM) of the same compound?
**A.** 1

**Q.** What about the “mean score (1-5)” value (C. elegans N2; 50 µM) of the same compound?
**A.** 1

**Q.** What about the “mean score (1-5)” value (C. elegans N2; 100 µM) of the same compound?
**A.** 1
